Data taken from patent US11952387B2, “Bicyclic heteroaromatic ring derivative” (priority 2018, dated 2024).

Tested on: HRV14
Assay: Inhibitory activity against human rhinovirus infection and replication (quantitative real-time PCR)
Assay type: cell-based
Conditions: Human rhinovirus sp., MRC5; 100 nmol/L test compound; MRC-5 cells infected with HRV14 at MOI=0.2; 48 hours; viral load normalized to 18s rRNA; read-out: Percent Inhibition
Procedure: Evaluation of inhibitory activity against human rhinovirus infection and replication (by quantitative real-time PCR)
A required amount of a test compound was weighed off and dissolved in dimethyl sulfoxide (DMSO) to yield a 10 mmol/L stock solution. Next, the stock solution was diluted with a medium for viral infection (minimum essential medium (MEM) supplemented with 2% fetal bovine serum, 5% Tryptose phosphate broth, and 30 mmol/L MgCl2) to prepare 100 nmol/L and 1000 nmol/L of test compound solutions. MRC-5 (human fetal lung fibroblast: ATCC) was suspended at a density of 30000 cells/mL in cell culture medium (MEM supplemented with 10% fetal bovine serum), and 625 μL of the suspension per well was seeded into a 24-well cell culture plate and cultured at 37° C. in 5% CO2. After 72 hours, it was confirmed that the plate had become 80% confluent. The plate was washed with 625 μL of phosphate-buffered physiological saline (Ca/Mg-free; PBS-) once, and 625 μL of the test compound solution prepared just before use was immediately added to the plate. After 30 minutes, the medium was removed followed by addition of 187.5 μL of the test compound solution that had been prepared such that the cells were infected with HRV14 (ATCC) at multiplicity of infection (MOI)=0.2. The cells were then cultured at 35° C. in 5% CO2. After additional 2 hours, 625 μL of the test compound solution prepared just before use was added, and the cells were cultured at 35° C. in 5% CO2. After 48 hours, the cells were washed with 625 μL of PBS- once, and total RNA was extracted from the cells using RNeasy (R) plus kit (Qiagen) according to the manufacturer's instruction. Subsequently, cDNA was synthesized using High-Capacity cDNA Reverse Transcription Kit (Thermo Fisher Scientific). Finally, quantitative real-time PCR was performed in 7500 Fast Real-time PCR system (Life technologies) to measure HRV14 and 18s rRNA. The measurement protocol consisted of the initial denaturation phase at 95° C. for 20 seconds followed by 40 cycles of the denaturation step at 95° C. for 3 seconds and the annealing/elongation step at 60° C. for 30 seconds. The primers used were HRV14 forward primer set forth in SEQ ID NO: 1 and HRV14 reverse primer set forth in SEQ ID NO: 2, and the probe is set forth in SEQ ID NO: 3.
18s rRNA was measured using Eukaryotic 18S rRNA Endogenous Control (Applied Biosystems). According to Equation 1, 18s ribosomal RNA was used as an internal standard to normalize the viral load of HRV14: Viral load of HRV14=The amount of HRV14 in virus-infected cells/the amount of 18s rRNA in virus-infected cells Equation 1
Inhibitory activity of test compounds was calculated as a percent inhibition (%) according to Equation 2: Percent inhibition (%)=[the viral load of HRV in virus-infected cells in the absence of the test compound −the viral load of HRV in virus-infected cells in the presence of the test compound]/[the viral load of HRV in virus-infected cells in the absence of the test compound]×100 Equation 2
The results of using 100 nmol/L test compound solutions were shown in the tables below according to Examples. In the tables, percent inhibition was expressed as follows: percent inhibition >80%: +++, 80%≥percent inhibition >50%: ++, and 50%≥percent inhibition:+.

SMILES	inhibition at 0.1 µM [%]
COc1ccc(-c2c(C)nc3sc(C(O)(C4CC4)C4CC4)nn23)cc1S(=O)(=O)C1CN(S(C)(=O)=O)C1 [Example 9-3]	> 80
COc1ccc(-c2c(C)nc3sc(C(C)(C)O)nn23)cc1S(=O)(=O)N[C@H]1CC[C@](C)(O)CC1 [Example 21-12]	50 to 80
Cc1nc2sc(C(C)(C)O)nn2c1-c1cccc(S(=O)(=O)CC(C)(C)O)c1 [Example 2-38]	≤ 50
COc1ccc(-c2c(C)nc3sc(C(O)(C4CC4)C4CC4)nn23)cc1S(=O)(=O)[C@H]1C[C@@H](O)C1 [Example 2-96]	> 80
COc1ncc(-c2c(C)nc3sc(C(C)(C)C#N)nn23)cc1S(=O)(=O)N[C@H]1CC[C@@H](O)CC1 [Example 1-18]	50 to 80
Cc1nc2sc(C(C)(C)O)nn2c1-c1ccc(C(F)(F)F)c(S(=O)(=O)NC(C)(C)CO)c1 [Example 1-33]	> 80
[2H]C([2H])([2H])Oc1ccc(-c2c(C)nc3sc(C4CC4)nn23)cc1S(=O)(=O)NC(C)(C)CO [Example 2-90]	> 80
CNC(=O)C(C)(C)S(=O)(=O)c1cc(-c2c(C)nc3sc(C(O)(C4CC4)C4CC4)nn23)ccc1OC [Example 8-4]	> 80
COc1ccc(-c2c(C)nc3sc(C(C)(C)O)nn23)cc1S(=O)(=O)CC(C)(C)C#N [Example 2-60]	≤ 50
COc1ccc(-c2c(C)nc3sc(C(C)(C)O)nn23)cc1S(=O)(=O)Cc1cccnc1 [Example 2-94]	50 to 80
Cc1nc2sc(C(C)(C)O)nn2c1-c1ccc(C(F)(F)F)c(S(=O)(=O)N(C)[C@H]2CC[C@H](O)CC2)c1 [Example 2-9]	> 80
COc1ccc(-c2c(C)nc3sc(C(O)(C4CC4)C4CC4)nn23)cc1S(=O)(=O)[C@H]1C[C@](C)(O)C1 [Example 2-82]	> 80
Cc1nc2sc(C(C)(C)O)nn2c1-c1ccc(C(F)(F)F)c(S(=O)(=O)NC2(CO)COC2)c1 [Example 2-31]	> 80
COc1ccc(-c2c(C)nc3sc(C(O)(C4CC4)C4CC4)nn23)cc1S(=O)(=O)C(C)(C)C(N)=O [Example 6-3]	> 80
Cc1nc2sc(C3CC3)nn2c1-c1ccc(C(F)(F)F)c(S(=O)(=O)CCO)c1 [Example 2-15]	50 to 80
COc1ccc(-c2c(C)nc3sc(C(C)(C)O)nn23)cc1S(=O)(=O)CC1(O)CCC1 [Example 2-63]	≤ 50
COc1ccc(-c2c(C)nc3sc(C4(C#N)CC4)nn23)cc1S(=O)(=O)NC(C)(C)CO [Example 1-39]	≤ 50
COc1ccc(-c2c(C)nc3sc(C(C)(C)O)nn23)cc1S(=O)(=O)NC1(C)CCC(O)CC1 (stereo not shown) [Example 21-14]	> 80
C=C(C)c1cn2c(-c3ccc(OC)c(S(=O)(=O)N[C@H]4CC[C@@H](O)CC4)c3)c(C)nc2s1 [Example 25]	50 to 80
Cc1nc2sc(C(C)(C)O)nn2c1-c1ccc(C(F)(F)F)c(S(=O)(=O)N[C@H]2CC[C@@H](O)CC2)c1 [Example 1-26]	> 80
CCOc1ccc(-c2c(C)nc3sc(C(C)(C)O)nn23)cc1S(=O)(=O)CC(C)(C)O [Example 2-57]	50 to 80
COc1ccc(-c2c(C)nc3sc(C(C)(C)O)cn23)cc1S(=O)(=O)C[C@H]1CC[C@@H](O)CC1 [Example 1-27]	≤ 50
Cc1nc2sc(C(C)(C)O)nn2c1-c1ccc(C(F)(F)F)c(S(=O)(=O)C(C)(C)CO)c1 [Example 4-3]	> 80
COc1ccc(-c2c(C)nc3sc(C(C)(C)O)nn23)cc1S(=O)(=O)[C@H]1C[C@@](C)(O)C1 [Example 2-55]	≤ 50
COc1c(F)cc(-c2c(C)nc3sc(C(C)(C)C)cn23)cc1S(=O)(=O)N[C@H]1CC[C@@H](O)CC1 [Example 2-3]	> 80
Cc1nc2sc(C(C)(C)O)nn2c1-c1ccc(C(F)(F)F)c(S(=O)(=O)CC2CC(O)C2)c1 (stereo not shown) [Example 2-23]	50 to 80

SMILES	inhibition at 0.1 µM [%]
Cc1nc2sc(C(C)(C)O)nn2c1-c1ccc(C(F)(F)F)c(S(=O)(=O)N[C@]2(C)C[C@@H](O)C2)c1 [Example 2-18]	> 80
COc1ncc(-c2c(C)nc3sc(C(C)(C)CO)nn23)cc1S(=O)(=O)N[C@H]1CC[C@@H](O)CC1 [Example 20-2]	≤ 50
Cc1nc2sc(C(C)(C)O)nn2c1-c1ccc(C(F)(F)F)c(S(=O)(=O)[C@H]2C[C@](C)(O)C2)c1 [Example 2-77]	> 80
COc1ccc(-c2c(C)nc3sc(C(C)(C)O)nn23)cc1S(=O)(=O)C1CCC(O)CC1 (stereo not shown) [Example 14]	≤ 50
COc1ccc(-c2c(C)nc3sc(C(C)(C)O)nn23)cc1S(=O)(=O)N[C@H]1C[C@@H](CO)C1 [Example 21-9]	≤ 50
COc1ccc(-c2c(C)nc3sc(C(O)(C4CC4)C4CC4)nn23)cc1S(=O)(=O)C(C)(C)C(=O)NCC(C)(C)O [Example 8-3]	> 80
Cc1nc2sc(C(C)(C)O)nn2c1-c1ccc(OC(F)(F)F)c(S(=O)(=O)N[C@H]2CC[C@H](O)CC2)c1 [Example 2-7]	> 80
COc1ccc(-c2c(C)nc3sccn23)cc1S(=O)(=O)Nc1ccc(F)cc1 [Example 1-52]	≤ 50
COc1ccc(-c2c(C)nc3sc(C(C)(C)O)cn23)cc1S(=O)(=O)N[C@H]1CC[C@@H](O)CC1 [Example 21-1]	≤ 50
COc1ccc(-c2c(C)nc3sc(C(C)(C)O)nn23)cc1S(C)(=O)=O [Example 2-13]	≤ 50
Cc1nc2sc(C(C)(C)O)nn2c1-c1ccc(C(F)(F)F)c(S(=O)(=O)C2CN(C(=O)OC(C)(C)C)C2)c1 [Example 2-36]	> 80
Cc1nc2sc(C(C)(C)O)nn2c1-c1ccc(C(F)(F)F)c(S(=O)(=O)NCC(C)(C)O)c1 [Example 2-21]	> 80
COc1ccc(-c2c(C)nc3sc(C(C)(C)O)cn23)cc1S(=O)(=O)CC(C)(C)O [Example 1-42]	≤ 50
COc1ccc(-c2c(C)nc3sc(C(C)(C)O)cn23)cc1S(=O)(=O)Nc1ccc(F)cc1 [Example 21-19]	50 to 80
[2H]C([2H])([2H])Oc1ccc(-c2c(C)nc3sc(C(C)(C)O)cn23)cc1S(=O)(=O)N[C@H]1CC[C@@H](O)CC1 [Example 2-88]	≤ 50
COc1ccc(-c2c(C)nc3sc(C(C)(C)O)nn23)cc1S(=O)(=O)NC1(C(C)(C)O)CC1 [Example 23]	> 80
Cc1nc2sc(C(C)(C)O)nn2c1-c1ccc(C(F)(F)F)c(S(=O)(=O)C2COC2)c1 [Example 2-28]	> 80
Cc1nc2sc(C(C)(C)O)nn2c1-c1ccc(C(F)(F)F)c(S(=O)(=O)C2CC(F)(F)C2)c1 [Example 2-44]	> 80
COc1ccc(-c2c(C)nc3sc(C(C)(C)O)nn23)cc1S(=O)(=O)CC1(O)CCC(F)(F)CC1 [Example 2-64]	> 80
[2H]C([2H])([2H])C(O)(CS(=O)(=O)c1cc(-c2c(C)nc3sc(C(C)(C)O)nn23)ccc1C(F)(F)F)C([2H])([2H])[2H] [Example 2-97]	> 80
COc1ccc(-c2c(C)nc3sc(C(C)(C)O)nn23)cc1S(=O)(=O)[C@H]1C[C@@H](O)C1 [Example 2-54]	≤ 50
COc1ccc(-c2c(C)nc3sc(C(C)(C)O)nn23)cc1S(=O)(=O)Cc1ccc(F)cc1 [Example 2-92]	50 to 80
COc1ccc(-c2c(C)nc3sc(C(C)(C)O)nn23)cc1S(=O)(=O)CC1(C)COC1 [Example 2-41]	50 to 80
COc1ccc(-c2c(C)nc3sc(C(C)(C)O)nn23)cc1S(=O)(=O)NC[C@H]1C[C@H](O)C1 [Example 21-6]	≤ 50
COc1ccc(-c2c(C)nc3sc(C(C)(C)CO)nn23)cc1S(=O)(=O)N[C@H]1CC[C@@H](O)CC1 [Example 20-1]	> 80
Cc1nc2sc(C(C)(C)O)nn2c1-c1ccc(C(F)(F)F)c(S(=O)(=O)C2CN(C)C2)c1 [Example 12-1]	50 to 80
